Experimental data published in patent publication US20240032541A1, “HERBICIDAL COMPOUNDS” (SYNGENTA CROP PROTECTION AG, priority 2020, published 2024).

Legend:
Format in all cases: in vivo
[1] = system: Amaranthus retoflexus (AMARE); assay: Post-emergence herbicide glasshouse test; details: post-emergence (sprayed after 8 days cultivation), 250 g/ha, evaluated after 13 days
Method: (§1) Seeds of a variety of test species are sown in standard soil in pots Amaranthus retoflexus (AMARE), Echinochloa crus-galli (ECHCG), Setaria faberi (SETFA)). After cultivation for one day (pre-emergence) or after 8 days cultivation (post-emergence) under controlled conditions in a glasshouse (at 24/16° C., day/night; 14 hours light; 65% humidity), the plants are sprayed with an aqueous spray solution derived from the formulation of the technical active ingredient in acetone/water (50:50) solution containing 0.5% Tween 20 (polyoxyethelyene sorbitan monolaurate, CAS RN 9005-64-5). Compounds are applied at 250 g/ha unless otherwise stated. The test plants are then grown in a glasshouse under controlled conditions in a glasshouse (at 24/16° C., day/night; 14 hours light; 65% humidity) and watered twice daily. After 13 days for pre and post-emergence, the test is evaluated for the percentage damage caused to the plant. The biological activities are shown in the following table on a five-point scale (5=81-100%; 4=61-80%; 3=41-60%; 2=21-40%; 1=0-20%).

[2] = system: Echinochloa crus-galli (ECHCG); assay: Post-emergence herbicide glasshouse test; details: post-emergence (sprayed after 8 days cultivation), 250 g/ha, evaluated after 13 days
Method: as §1

Setaria faberi (SETFA) [3] = assay: Post-emergence herbicide glasshouse test; details: post-emergence (sprayed after 8 days cultivation), 250 g/ha, evaluated after 13 days
Method: as §1

[4] = system: Amaranthus retoflexus (AMARE); assay: Pre-emergence herbicide glasshouse test; details: pre-emergence (sprayed after one day cultivation), 250 g/ha, evaluated after 13 days
Method: as §1

[5] = system: Echinochloa crus-galli (ECHCG); assay: Pre-emergence herbicide glasshouse test; details: pre-emergence (sprayed after one day cultivation), 250 g/ha, evaluated after 13 days
Method: as §1

Setaria faberi (SETFA) [6] = assay: Pre-emergence herbicide glasshouse test; details: pre-emergence (sprayed after one day cultivation), 250 g/ha, evaluated after 13 days
Method: as §1

Row | SMILES | percentage damage caused to the plant, five-point scale, AMARE [1] | percentage damage caused to the plant, five-point scale, ECHCG [2] | percentage damage caused to the plant, five-point scale, SETFA (Setaria faberi (SETFA) [3]) | percentage damage caused to the plant, five-point scale, AMARE [4] | percentage damage caused to the plant, five-point scale, ECHCG [5] | percentage damage caused to the plant, five-point scale, SETFA (Setaria faberi (SETFA) [6])
1 | FC(F)(F)CCCc1nc(C2CCCC2)nc2cccc(Oc3ncc(Cl)cn3)c12 [Compound 1.031] | 4 (4=61-80%) | 3 (3=41-60%) | 3 (3=41-60%) | 1 (1=0-20%) | 5 (5=81-100%) | 5 (5=81-100%)
2 | FC(F)(F)CCCc1nc(C(F)(F)F)nc2cccc(Oc3ncc(Br)cn3)c12 [Compound 1.025] | 4 (4=61-80%) | 5 (5=81-100%) | 4 (4=61-80%) | 4 (4=61-80%) | 5 (5=81-100%) | 5 (5=81-100%)
